Series [1] has as its system genotype lb HCV replicon (Huh-7). The series is described as follows: microbe, parasite or virus in culture. Conditions: Hepatitis C virus, Huh-7, 72 h. As to the method:
The protein was expressed with an 18 amino acid C-terminal truncation to enhance the solubility. The E. coli competent cell line BL21(DE3) was used for expression of the protein. […] The cultures were cooled to 20 °C and induced with 1 mM IPTG. […] After addition of the lysis buffer, frozen cell pellets were resuspended using a tissue homogenizer. To reduce the viscosity of the sample, aliquots of the lysate were sonicated on ice using a microtip attached to a Branson sonicator. […] The protein was purified using two sequential chromatography steps: Heparin sepharose CL-6B and polyU sepharose 4B. […] Each column was eluted with a NaCl gradient which varied in length from 5-50 column volumes depending on the column type. […] The enzyme was aliquoted and stored at -80 °C. […] Unbound primer was removed after centrifugation. […] After incubating for at least 15 minutes, plates were read on an Amersham LEADseeker multimodality imaging system. IC50 values for compounds were determined using ten different [I]. […] Cell lines. […] These cells were maintained in Dulbecco's modified Eagle medium (DMEM) containing 10% FBS, 100 U/mL penicillin/streptomycin and 1.0 mg/mL G418. […]

The subject of the next series is blood uric acid. The series is described as follows: Multiple dose study of TS dispersion, 14 days (Example 6): blood uric acid level. The class given is in vivo, healthy subjects and elderly subjects. The method, then: Example 3 - Preparation of dispersions for oral administration: (a) Using the tosylate salt of 4-r2-(5-Amino-1 H-pyrazol-4-yl)-4-chlorophenoxyl-5- chloro-2-fluoro-N-(1,3-thiazol-4-yl)benzenesulfonamide: Methylcellulose vehicle (0.5% w/v) was prepared as follows. Water for irrigation (600 ml.) was heated in a beaker to between 80°C and 90°C. Methylcellulose (5 g) powder was added, with stirring, until the powder had fully dispersed. The dispersion was then transferred into an ice bath and cooled rapidly whilst adding chilled water for irrigation (400 ml.) to give a clear solution. The dispersion for oral administration was prepared by weighing the required quantity of 4-[2-(5-amino-1 H-pyrazol-4-yl)-4-chlorophenoxy]-5-chloro-2-fluoro-N- (1,3-thiazol-4-yl)benzenesulfonamide tosylate (from 10mg to 2400mg) into an appropriately sized glass amber dosing bottle and adding a volume of vehicle (0.5% (w/v) methylcellulose). The volume of vehicle added was dependant on dose: 15 ml. for doses of drug in the range 10 mg to < 30 mg; and 50 ml. for doses of drug in the range 30 mg to 2400 mg, so that the drug concentration was in the range 0.6 to 50 mg/mL. The dispersion was stored at 2 to 8°C and administered within 72 hours directly from the dosing containers. After administration the glass dosing bottle was rinsed with two approximate equal aliquots of drinking water such that the total volume administered, including dosing volume, was 240 ml_. (b) Using the SDD of 4-[2-(5-Amino-1 H-pyrazol-4-yl)-4-chlorophenoxyl-5-chloro-2- fluoro-N-(1,3-thiazol-4-yl)benzenesulfonamide: Methylcellulose vehicle 0.5% (w/v) was prepared using the procedure set out in Example 3(a) above. The dispersion for oral administration was prepared by weighing the required quantity of 4-[2-(5-amino-1 H-pyrazol-4-yl)-4-chlorophenoxy]-5-chloro-2-fluoro-N- (1,3-thiazol-4-yl)benzenesulfonamide SDD into an appropriately sized glass amber dosing bottle and adding a volume of vehicle (0.5% (w/v) Methylcellulose). The volume of vehicle added was dependent on dose: 20 ml. to 100 ml. over the dose range 10 mg to 2400 mg, so that the drug concentration was in the range 0.6 to 50 mg/mL. The dispersion was stored at 2 to 8°C and administered within 72 hours directly from the dosing containers. After administration the glass dosing bottle was rinsed with two approximate equal aliquots of drinking water such that the total volume administered, including dosing volume, was 240 ml_. […] Uric acid measurements were performed using a commercial colorimetric assay kit (Beckman Coulter). […]

In the next series the test system is uric acid in urine. In words: Multiple dose study of TS dispersion, 14 days (Example 6): uric acid excretion in urine. Conditions: 24 hour urine, Days 1, 6, 14, 16; returns to baseline by Day 16. The format is in vivo, healthy subjects and elderly subjects. As to the method: Example 6 - Multiple dose study: a double-blind, randomized, placebo-controlled, study in healthy subjects and elderly subjects: Multiple oral doses of 4-[2-(5-amino-1 H-pyrazol-4-yl)-4-chlorophenoxy]-5-chloro-2-fluoro-N-(1,3-thiazol-4-yl)benzenesulfonamide TS dispersion for oral administration, and placebo, were investigated for 14 days, as follows: • healthy subjects, 300 mg twice daily (BID,) • healthy subjects, 450 mg BI D, and • elderly subjects, 300 mg BID.
Subjects were fasted overnight prior to the morning doses and for at least 2 hours prior to the evening doses. Food was withheld for at least 2 hours postdose. A total of 49 subjects were enrolled in the study of which 39 received 4-[2-(5-amino-1 H-pyrazol-4-yl)-4-chlorophenoxy]-5-chloro-2-fluoro-N-(1,3-thiazol-4-yl)benzenesulfonamide TS and 10 received placebo. […]
Concentrations of uric acid in blood decreased following dosing with 4-[2-(5-amino-1 H-pyrazol-4-yl)-4-chlorophenoxy]-5-chloro-2-fluoro-N-(1,3-thiazol-4-yl)benzenesulfonamide. All subjects had blood uric acid values above the LLN on Day 1. […] Uric acid was also measured in urine collected over 24 hours prior to dosing on Day 1, and then on Days 6, 14 and 16. The percent excreted fraction of uric acid in urine was calculated and analyzed with a linear mixed effects model.

The nature of series [2]: Stability experiment for polymorph Form A of Compound 1 (stability chamber). The class given is physicochemical. The settings on record: 40 °C for 30 days. As to the method:
CHARACTERIZATION EXAMPLE 13 - Stability Experiment for Polymorph Form A ({drug1a}) of Compound 1 (drug 1): The physical stability of Form A ({drug1a}) of Compound 1 (drug 1) was determined as follows. Compound 1 (drug 1) prepared according to Preparation Example 3 was analyzed by pXRD, DSC, HPLC and 1H-NMR and found to be of pure crystal Form A ({drug1a}) of 99.9 % purity (by HPLC peak area at 230 nm detection wavelength). An aliquot of the sample (3.0 g) was placed in a primary polyethylene bag, the primary bag was flushed with nitrogen gas and sealed. The primary polyethylene bag was then placed in a secondary polyethylene bag which was again flushed with nitrogen gas and a silica gel sachet was placed between the inner and the outer bag. The double bagged material was then placed in a triple laminated aluminum pouch and placed in a stability chamber at 40 °C for 30 days. Analysis by HPLC and 1H-NMR of the resulting material indicated pure Form A ({drug1a}) of Compound 1 (drug 1) of 99.9 % purity (by HPLC peak area at 230 nm). […] The triclinic cell parameters were determined to be: a = 14.835(7) A, b = 15.216(8) A, c = 18.790(10) A, alpha = 90.306(7) °, beta = 93.619(7) °, gamma = 1 13.045(7) °, volume = 3893(3) A3. The space group was determined to be P-1. The molecular weight was 468.23 giving a calculated density of 1.598g/cm3, and µ(Mo) = 0.50mm"1 for Z = 8. […]

Series [3] can be described thus: Relative stability (non-competitive and competitive interconversion) experiments of crystal forms of Compound 1.
Protocol: For the non-competitive experiments, only a single starting crystal form was used to study the potential conversion to another more stabb form. […] The slurry was cooled to 25-30 °C, filtered, suction dried for 1 hour and dried in a vacuum oven at 70 °C and 8 kPa absolute pressure for 12 hours. […] The slurry was cooled to 25-30 °C, filtered, suction dried for 1 hour and dried in a vacuum oven at 70 °C and 8 kPa absolute pressure for 12 hours. […] The slurry was cooled to 25-30 °C, filtered, suction dried for 1 hour and dried in a vacuum oven at 70 °C and 8 kPa absolute pressure for 12 hours.

This note sets out measurements from patent EP2792360A1, “(1aR,12bS)-8-cyclohexyl-11-fluoro-N-((1-methylcyclopropyl)sulfonyl)-1a-((3-methyl-3,8-diazabicyclo[3.2.1]oct-8-yl)carbonyl)-1,1a,2,2b-tetrahydrocyclopropa[d]indolo[2,1-a][2]benzazepine-5-carboxamide for use in treating HCV” (IP Gesellschaft für Management mbH, priority 2013, dated 2014).

A word on the EC50: it is the concentration needed to bring the measured effect to its halfway point.

The molecule `CN1CC2CCC(C1)N2C(=O)[C@]12C[C@H]1c1cc(F)ccc1-c1c(C3CCCCC3)c3ccc(C(=O)NS(=O)(=O)C4(C)CC4)cc3n1C2` [Compound 2, (1aR,12bS)-8-cyclohexyl-11-fluoro-N-((1-methylcyclopropyl)sulfonyl)-1a-((3-methyl-3,8-diazabicyclo[3.2.1]oct-8-yl)carbonyl)-1,1a,2,12b-tetrahydrocyclopropa[d]indolo[2,1-a][2]benzazepine-5-carboxamide] registered a 50% effective concentration (EC50) in series [1] of 7 nM.
Turning to `Nc1[nH]ncc1-c1cc(Cl)ccc1Oc1cc(F)c(S(=O)(=O)Nc2cscn2)cc1Cl` [4-[2-(5-amino-1H-pyrazol-4-yl)-4-chlorophenoxy]-5-chloro-2-fluoro-N-(1,3-thiazol-4-yl)benzenesulfonamide], the “day on which median blood uric acid concentrations fell below LLN” value with blood uric acid (450 mg BID) is given as “Day 3”. Also, in the series on blood uric acid (all cohorts (300 mg and 450 mg BID), Day 6), the “median blood uric acid concentration relative to LLN” value is listed as “below the LLN”. In addition, the “Concentrations of uric acid in blood” value in the series with blood uric acid (following dosing, given as TS dispersion 300 mg or 450 mg BID) is recorded as “decreased”. Also, the “time after cessation of dosing until blood uric acid returned to above the LLN for all subjects” value in the series on blood uric acid (i.e. by Day 16) is ≤ 2 days. Besides, the “excreted fraction of uric acid in urine” value with uric acid in urine was “increases during dosing”.
On to `COc1ccc(Cl)c(S(=O)(=O)NC(=O)c2cn3cc(C(F)(F)F)cc(Cl)c3n2)c1` [Form A ({drug1a}), 8-chloro-N-[(2-chloro-5-methoxyphenyl)sulfonyl]-6-(trifluoromethyl)-imidazo[1,2-a]pyridine-2-carboxamide], for which the “crystal form by pXRD and DSC after storage” value in series [2] is reported as “pure polymorphForm A”. For the same molecule, the “purity (by HPLC peak area at 230 nm) after storage” value in series [2] (double polyethylene bags under nitrogen in aluminum pouch, 99.9 % before storage) is on record as 99.9%. In series [3] (non-competitive, refluxed in deionized water at about 95 °C for 3 hours, pXRD, DSC, TGA, 1H-NMR), the “crystal form of the resulting material” value is recorded as “remained unchanged”. Further, the “relative thermodynamic stability of polymorph form” value in series [3] (water heated to 95 °C or methanol heated to 55 °C) was “most thermodynamically stable polymorph form”.
